For ten molecules, MIC results are on record in ChEMBL document CHEMBL4619795, “Establishing the Structure-Activity Relationship of Daptomycin” (ACS Med Chem Lett, 2020).

Some results are limits rather than exact numbers.

Common to all, as to assay type: functional
The subject of assay [1] is Enterococcus faecalis. As to the kind of experiment: Antibacterial activity against Streptococcus faecalis assessed as bacterial growth inhibition in presence of 50 ug/ml calcium ions by CLSI protocol based broth microdilution method. (In broth dilution the organism is exposed to a series of concentrations in liquid medium.)
Assay [2] deals with Staphylococcus aureus. The assay is described as follows: Antibacterial activity against methicillin-resistant Staphylococcus aureus 14 assessed as bacterial growth inhibition in presence of 50 ug/ml calcium ions by CLSI protocol based broth microdilution method.
Assay [3] has as its system Enterococcus. The assay is described as follows: Antibacterial activity against Enterococcus 60 assessed as bacterial growth inhibition in presence of 50 ug/ml calcium ions by CLSI protocol based broth microdilution method.
Assay [4] deals with Staphylococcus aureus. As to the kind of experiment: Antibacterial activity against methicillin-resistant Staphylococcus aureus 86 assessed as bacterial growth inhibition in presence of 50 ug/ml calcium ions by CLSI protocol based broth microdilution method.
Assay [5] has as its system Enterococcus. As to the kind of experiment: Antibacterial activity against Enterococcus 6 assessed as bacterial growth inhibition in presence of 50 ug/ml calcium ions by CLSI protocol based broth microdilution method.
The subject of assay [6] is Enterococcus faecalis. The assay is described as follows: Antibacterial activity against Enterococcus faecalis ATCC 29212 assessed as bacterial growth inhibition in presence of 50 ug/ml calcium ions by CLSI protocol based broth microdilution method.
For assay [7], the system named is Staphylococcus aureus. As to the kind of experiment: Antibacterial activity against methicillin-resistant Staphylococcus aureus 11 assessed as bacterial growth inhibition in presence of 50 ug/ml calcium ions by CLSI protocol based broth microdilution method.
Assay [8] concerns Staphylococcus aureus. As to the kind of experiment: Antibacterial activity against methicillin-resistant Staphylococcus aureus 88 assessed as bacterial growth inhibition in presence of 50 ug/ml calcium ions by CLSI protocol based broth microdilution method.
The test system of assay [9] is Staphylococcus aureus. The assay is described as follows: Antibacterial activity against Staphylococcus aureus ATCC 29213 assessed as bacterial growth inhibition in presence of 50 ug/ml calcium ions by CLSI protocol based broth microdilution method.

Broadly, the MIC is the least concentration at which growth counts as inhibited. `CCCCCCCCCC(=O)N[C@@H](Cc1c[nH]c2ccccc12)C(=O)N[C@@H](CC(N)=O)C(=O)N[C@@H](CC(=O)O)C(=O)N[C@@H]1C(=O)NCC(=O)N[C@@H](CC(C)C)C(=O)N[C@@H](CC(=O)O)C(=O)N[C@H](C)C(=O)N[C@@H](CC(=O)O)C(=O)NCC(=O)N[C@H](CO)C(=O)N[C@@H]([C@@H](C)CC(=O)O)C(=O)N[C@@H](CC(=O)c2ccccc2N)C(=O)O[C@@H]1C`: the minimal inhibitory concentration (MIC) was no less than 32 µg/mL in the assay on Enterococcus faecalis [1]; 0.5 µg/mL in the assay with Staphylococcus aureus [2]; 16 µg/mL in the assay with Enterococcus [3]; 4 µg/mL in the assay on Staphylococcus aureus [4]; no less than 32 µg/mL in the assay with Enterococcus [5]; no less than 32 µg/mL in the assay with Enterococcus faecalis [6]. For the same molecule, the MIC is 1 µg/mL in the assay on Staphylococcus aureus [7], 2 µg/mL with Staphylococcus aureus [8] and 4 µg/mL in the assay with Staphylococcus aureus [9].

For the molecule `CCCCCCCCCC(=O)N[C@@H](Cc1c[nH]c2ccccc12)C(=O)N[C@@H](CC(N)=O)C(=O)N[C@@H](CC(=O)O)C(=O)N[C@@H]1C(=O)NCC(=O)N[C@@H](C)C(=O)N[C@@H](CC(=O)O)C(=O)N[C@H](C)C(=O)N[C@@H](CC(=O)O)C(=O)NCC(=O)N[C@H](CO)C(=O)N[C@@H]([C@@H](C)CC(=O)O)C(=O)N[C@@H](CC(=O)c2ccccc2N)C(=O)O[C@@H]1C`, the MIC in the assay with Enterococcus faecalis [1] was found to be 4 µg/mL; with Staphylococcus aureus [2] it was 0.25 µg/mL; in the assay with Enterococcus [3], 1 µg/mL; in the assay on Staphylococcus aureus [4], 0.5 µg/mL; in the assay with Enterococcus [5], 2 µg/mL; with Enterococcus faecalis [6] it was 4 µg/mL. The MIC with Staphylococcus aureus [7] worked out at 0.5 µg/mL; with Staphylococcus aureus [8] it was 1 µg/mL; in the assay on Staphylococcus aureus [9] it was 0.5 µg/mL.

As to `CCCCCCCCCC(=O)N[C@@H](Cc1ccc2ccccc2c1)C(=O)N[C@@H](CC(N)=O)C(=O)N[C@@H](CC(=O)O)C(=O)N[C@@H]1C(=O)NCC(=O)N[C@@H](CCCN)C(=O)N[C@@H](CC(=O)O)C(=O)N[C@H](C)C(=O)N[C@@H](CC(=O)O)C(=O)NCC(=O)N[C@H](CO)C(=O)N[C@@H]([C@@H](C)CC(=O)O)C(=O)N[C@@H](CC(=O)c2ccccc2N)C(=O)O[C@@H]1C`, the minimal inhibitory concentration (MIC) was 0.25 µg/mL with Enterococcus faecalis [1]; 0.125 µg/mL in the assay with Staphylococcus aureus [2]; 0.5 µg/mL in the assay with Enterococcus [3]; 0.06 µg/mL in the assay with Staphylococcus aureus [4]; 4 µg/mL in the assay with Enterococcus [5]; 1 µg/mL with Enterococcus faecalis [6]. The figures for the minimal inhibitory concentration (MIC) in the assay with Staphylococcus aureus [7], with Staphylococcus aureus [8] and in the assay with Staphylococcus aureus [9] were 0.5 µg/mL, 0.125 µg/mL and 0.25 µg/mL, respectively.

Take `CCCCCCCCCC(=O)N[C@@H](Cc1c[nH]c2ccccc12)C(=O)N[C@@H](CC(N)=O)C(=O)N[C@@H](CC(=O)O)C(=O)N[C@@H]1C(=O)NCC(=O)N[C@@H](Cc2c[nH]c3ccccc23)C(=O)N[C@@H](CC(=O)O)C(=O)N[C@H](C)C(=O)N[C@@H](CC(=O)O)C(=O)NCC(=O)N[C@H](CO)C(=O)N[C@@H]([C@@H](C)CC(=O)O)C(=O)N[C@@H](CC(=O)c2ccccc2N)C(=O)O[C@@H]1C`: the MIC with Enterococcus faecalis [1] is 2 µg/mL; in the assay on Staphylococcus aureus [2], 1 µg/mL; in the assay on Enterococcus [3] it was no less than 32 µg/mL; in the assay on Staphylococcus aureus [4], 4 µg/mL; in the assay on Enterococcus [5], no less than 32 µg/mL; in the assay with Enterococcus faecalis [6] it was no less than 32 µg/mL. For the same molecule, the MIC worked out at 2 µg/mL in the assay on Staphylococcus aureus [7], 2 µg/mL with Staphylococcus aureus [8] and 4 µg/mL in the assay on Staphylococcus aureus [9].

With `CCCCCCCCCC(=O)N[C@@H](Cc1c[nH]c2ccccc12)C(=O)N[C@@H](CC(N)=O)C(=O)N[C@@H](CC(=O)O)C(=O)N[C@@H]1C(=O)NCC(=O)N[C@@H](CCCN)C(=O)N[C@@H](CC(=O)O)C(=O)N[C@H](C)C(=O)N[C@H](CC(=O)O)C(=O)NCC(=O)N[C@H](CO)C(=O)N[C@@H]([C@@H](C)CC(=O)O)C(=O)N[C@@H](CC(=O)c2ccccc2N)C(=O)O[C@@H]1C`, the MIC in the assay on Enterococcus faecalis [1] was no less than 32 µg/mL; in the assay on Staphylococcus aureus [2], no less than 32 µg/mL; with Enterococcus [3], no less than 32 µg/mL; in the assay on Staphylococcus aureus [4], 16 µg/mL; in the assay with Enterococcus [5] it was no less than 32 µg/mL; in the assay with Enterococcus faecalis [6], no less than 32 µg/mL. In addition, the MIC was no less than 32 µg/mL with Staphylococcus aureus [7], 16 µg/mL in the assay on Staphylococcus aureus [8] and 16 µg/mL in the assay on Staphylococcus aureus [9].

As for `CCCCCCCCCC(=O)N[C@@H](Cc1c[nH]c2ccccc12)C(=O)N[C@@H](CC(N)=O)C(=O)N[C@@H](CC(=O)O)C(=O)N[C@@H]1C(=O)NCC(=O)N[C@@H](CCN)C(=O)N[C@@H](CC(=O)O)C(=O)N[C@H](C)C(=O)N[C@@H](CC(=O)O)C(=O)NCC(=O)N[C@H](CO)C(=O)N[C@@H]([C@@H](C)CC(=O)O)C(=O)N[C@@H](CC(=O)c2ccccc2N)C(=O)O[C@@H]1C`, the MIC was 0.5 µg/mL in the assay with Staphylococcus aureus [2]; 8 µg/mL with Enterococcus [3]; 0.25 µg/mL in the assay with Staphylococcus aureus [4]; 16 µg/mL in the assay with Enterococcus [5]; 16 µg/mL with Enterococcus faecalis [6]; 2 µg/mL with Staphylococcus aureus [7]. Further, the MIC with Staphylococcus aureus [8] and in the assay with Staphylococcus aureus [9] was 0.25 µg/mL throughout.

With `CCCCCCCCCC(=O)N[C@@H](Cc1c[nH]c2ccccc12)C(=O)N[C@@H](CC(N)=O)C(=O)N[C@@H](C)C(=O)N[C@@H]1C(=O)NCC(=O)N[C@@H](CCCN)C(=O)N[C@@H](CC(=O)O)C(=O)N[C@H](C)C(=O)N[C@@H](CC(=O)O)C(=O)NCC(=O)N[C@H](CO)C(=O)N[C@@H]([C@@H](C)CC(=O)O)C(=O)N[C@@H](CC(=O)c2ccccc2N)C(=O)O[C@@H]1C`, the minimal inhibitory concentration (MIC) was no less than 32 µg/mL in the assay on Enterococcus faecalis [1]; no less than 32 µg/mL in the assay on Staphylococcus aureus [2]; no less than 32 µg/mL with Enterococcus [3]; 16 µg/mL with Staphylococcus aureus [4]; no less than 32 µg/mL with Enterococcus [5]; no less than 32 µg/mL in the assay with Enterococcus faecalis [6]. Further, the MIC was no less than 32 µg/mL in the assay with Staphylococcus aureus [7], 16 µg/mL in the assay with Staphylococcus aureus [8] and 16 µg/mL with Staphylococcus aureus [9].

Regarding `CCCCCCCCCC(=O)N[C@@H](Cc1c[nH]c2ccccc12)C(=O)N[C@@H](CC(N)=O)C(=O)N[C@@H](CC(=O)O)C(=O)N[C@@H]1C(=O)NCC(=O)NCC(=O)N[C@@H](CC(=O)O)C(=O)N[C@H](C)C(=O)N[C@@H](CC(=O)O)C(=O)NCC(=O)N[C@H](CO)C(=O)N[C@@H]([C@@H](C)CC(=O)O)C(=O)N[C@@H](CC(=O)c2ccccc2N)C(=O)O[C@@H]1C`, the MIC in the assay on Enterococcus faecalis [1], in the assay with Staphylococcus aureus [2], in the assay on Enterococcus [3], with Staphylococcus aureus [4], with Enterococcus [5] and in the assay on Enterococcus faecalis [6] was no less than 32 µg/mL each time. Besides, the MIC with Staphylococcus aureus [7], in the assay with Staphylococcus aureus [8] and in the assay with Staphylococcus aureus [9] was no less than 32 µg/mL each time.

On to `CCCCCCCCCC(=O)N[C@@H](Cc1c[nH]c2ccccc12)C(=O)N[C@@H](CC(N)=O)C(=O)N[C@@H](CC(=O)O)C(=O)N[C@@H]1C(=O)NCC(=O)N[C@@H](CCCN)C(=O)N[C@@H](CC(=O)O)C(=O)N[C@H](C)C(=O)N[C@@H](C)C(=O)NCC(=O)N[C@H](CO)C(=O)N[C@@H]([C@@H](C)CC(=O)O)C(=O)N[C@@H](CC(=O)c2ccccc2N)C(=O)O[C@@H]1C`, for which the MIC in the assay on Enterococcus faecalis [1], in the assay with Staphylococcus aureus [2], in the assay with Enterococcus [3], in the assay with Staphylococcus aureus [4], with Enterococcus [5] and in the assay on Enterococcus faecalis [6] was no less than 64 µg/mL throughout. Also, the MIC in the assay with Staphylococcus aureus [7], in the assay with Staphylococcus aureus [8] and in the assay on Staphylococcus aureus [9] was no less than 64 µg/mL throughout.

In the case of `CCCCCCCCCC(=O)N[C@@H](Cc1c[nH]c2ccccc12)C(=O)N[C@@H](CC(N)=O)C(=O)N[C@@H](CC(=O)O)C(=O)N[C@@H]1C(=O)NCC(=O)N[C@@H](CN)C(=O)N[C@@H](CC(=O)O)C(=O)N[C@H](C)C(=O)N[C@@H](CC(=O)O)C(=O)NCC(=O)N[C@H](CO)C(=O)N[C@@H]([C@@H](C)CC(=O)O)C(=O)N[C@@H](CC(=O)c2ccccc2N)C(=O)O[C@@H]1C`, the MIC was 1 µg/mL in the assay with Staphylococcus aureus [2]; 8 µg/mL in the assay with Enterococcus [3]; 1 µg/mL with Staphylococcus aureus [4]; no less than 32 µg/mL in the assay on Enterococcus [5]; no less than 32 µg/mL in the assay with Enterococcus faecalis [6]; 8 µg/mL in the assay on Staphylococcus aureus [7]. In addition, the MIC is 0.5 µg/mL with Staphylococcus aureus [8] and 1 µg/mL in the assay on Staphylococcus aureus [9].
